Assay [1] has as its target T1, wild-type human cardiac sodium channel, hNav1.5 (Homo sapiens, UniProt Q14524). Kind of assay: Peak INa screening assay (tonic block and use-dependent block). The assay is classed as cell-based. The method, boiled down:
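HEK293 cells stably expressing hNav1.5 (no beta subunits), automated whole-cell patch clamp at 23-25° C, 40 mM Na+ bath (choline substitution), pH 7.35. Compound at 1 or 3 μM, added twice then 200 s equilibration; tonic block by steps to −20 mV from −100 mV at 0.1 Hz, use-dependent block at pulse 50 of a 3 Hz train, rundown-corrected versus compound-free.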

Assay [2] deals with T1, wild-type human cardiac sodium channel, hNav1.5. Nature of the assay: Late INa screening assay (QPatch whole cell patch clamp, Tefluthrin-induced late current). In kind it is cell-based. The note with it: HEK293 hNav1.5, percent block of late INa. The method, boiled down: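 HEK293 cells stably expressing hNav1.5 without beta subunits were whole-cell patch clamped at 23-25 °C, stepping from −120 to −20 mV for 250 ms at 0.1 Hz. Late current (240–265 ms) was induced with 10 μM Tefluthrin, and compounds were added typically at 0.3 or 1 μM. Percent block was taken against 0 Na baseline with rundown correction.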
In general terms: The patch-clamp technique gives a direct electrical read-out from membranes.

Where [3] appears, read: tonic block of Peak INa, 0.1 Hz, holding -100 mV, read-out: Peak TB 3 uM.
The mark [4] stands for this setting: use-dependent block of Peak INa, 3 Hz, pulse 50, read-out: Peak UDB 3 Hz 3 uM.

Where two headings read alike, the source gives them in different places.

T1 sequence (Q14524 whole entry): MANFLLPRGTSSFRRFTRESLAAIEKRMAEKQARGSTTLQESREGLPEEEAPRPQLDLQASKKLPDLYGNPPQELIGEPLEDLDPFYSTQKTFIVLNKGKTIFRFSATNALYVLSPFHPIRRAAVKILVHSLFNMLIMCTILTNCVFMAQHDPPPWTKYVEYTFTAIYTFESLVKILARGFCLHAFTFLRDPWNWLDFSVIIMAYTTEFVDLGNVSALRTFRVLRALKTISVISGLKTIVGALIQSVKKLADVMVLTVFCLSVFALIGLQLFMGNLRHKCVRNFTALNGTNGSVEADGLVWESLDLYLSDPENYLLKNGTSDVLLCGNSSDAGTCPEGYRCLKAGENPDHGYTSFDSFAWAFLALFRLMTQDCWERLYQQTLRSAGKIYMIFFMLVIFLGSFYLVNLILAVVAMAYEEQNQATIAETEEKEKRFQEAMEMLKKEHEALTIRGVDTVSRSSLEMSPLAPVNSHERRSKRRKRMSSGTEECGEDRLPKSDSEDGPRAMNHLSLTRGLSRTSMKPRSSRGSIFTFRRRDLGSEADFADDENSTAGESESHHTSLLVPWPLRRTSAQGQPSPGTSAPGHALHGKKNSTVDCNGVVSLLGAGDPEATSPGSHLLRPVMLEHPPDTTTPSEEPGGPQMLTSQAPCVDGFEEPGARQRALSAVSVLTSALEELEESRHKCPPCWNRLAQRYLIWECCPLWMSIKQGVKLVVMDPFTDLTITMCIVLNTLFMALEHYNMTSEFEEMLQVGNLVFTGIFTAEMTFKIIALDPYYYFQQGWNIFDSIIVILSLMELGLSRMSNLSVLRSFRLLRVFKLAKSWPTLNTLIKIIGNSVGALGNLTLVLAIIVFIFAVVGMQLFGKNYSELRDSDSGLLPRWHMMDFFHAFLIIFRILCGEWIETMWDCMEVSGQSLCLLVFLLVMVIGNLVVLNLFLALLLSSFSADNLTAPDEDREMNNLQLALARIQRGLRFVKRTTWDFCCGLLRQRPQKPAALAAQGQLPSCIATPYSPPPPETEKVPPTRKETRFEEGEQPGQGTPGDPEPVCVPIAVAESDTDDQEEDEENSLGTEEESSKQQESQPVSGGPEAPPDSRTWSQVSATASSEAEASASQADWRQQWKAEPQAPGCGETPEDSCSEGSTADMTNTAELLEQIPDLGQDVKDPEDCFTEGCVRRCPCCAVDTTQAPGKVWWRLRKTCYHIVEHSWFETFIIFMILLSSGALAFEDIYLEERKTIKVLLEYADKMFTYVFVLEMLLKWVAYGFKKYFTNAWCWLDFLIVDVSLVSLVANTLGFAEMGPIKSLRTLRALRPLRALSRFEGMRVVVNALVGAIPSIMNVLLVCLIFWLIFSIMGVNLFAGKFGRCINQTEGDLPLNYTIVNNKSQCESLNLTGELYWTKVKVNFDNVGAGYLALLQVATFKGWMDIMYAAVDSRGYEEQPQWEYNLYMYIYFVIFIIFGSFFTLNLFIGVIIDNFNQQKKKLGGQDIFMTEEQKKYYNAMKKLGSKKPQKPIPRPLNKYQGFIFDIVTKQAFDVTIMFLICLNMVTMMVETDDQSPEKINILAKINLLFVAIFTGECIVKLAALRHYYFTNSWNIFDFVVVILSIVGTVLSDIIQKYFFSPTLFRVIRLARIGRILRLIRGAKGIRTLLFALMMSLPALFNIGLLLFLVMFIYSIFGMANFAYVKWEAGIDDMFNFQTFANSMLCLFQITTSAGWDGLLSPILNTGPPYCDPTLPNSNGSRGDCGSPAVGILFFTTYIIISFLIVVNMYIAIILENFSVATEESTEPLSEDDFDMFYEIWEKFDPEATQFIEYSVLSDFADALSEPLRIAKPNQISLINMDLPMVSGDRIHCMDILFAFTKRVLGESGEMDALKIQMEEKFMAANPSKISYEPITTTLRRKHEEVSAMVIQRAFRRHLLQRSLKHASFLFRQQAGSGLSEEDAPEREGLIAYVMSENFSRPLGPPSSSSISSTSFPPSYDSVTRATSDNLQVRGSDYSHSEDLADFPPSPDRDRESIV

Regarding `COc1cc2onc(OCc3ncccn3)c2cc1-c1ccc(OC(F)(F)F)c(C)c1` [Example 14, 6-methoxy-5-(3-methyl-4-(trifluoromethoxy)phenyl)-3-(pyrimidin-2-ylmethoxy)benzo[d]isoxazole], the inhibition at 3 µM came out at 23.8% in assay [1] (setting [3]) and 6.4% in assay [1] (setting [4]). In addition, in assay [2], the inhibition at 1 µM turned out to be 46.7%.
`FC(F)(F)Oc1ccc(-c2ccc3onc(OCc4cnccn4)c3c2)cc1` [Example 151, 3-(pyrazin-2-ylmethoxy)-5-(4-(trifluoromethoxy)phenyl)benzo[d]isoxazole]: in assay [1] (setting [3]), the inhibition at 3 µM is 43.3%. In addition, the inhibition at 3 µM in assay [1] (setting [4]) was less than 5%. In assay [2], this molecule yielded an inhibition at 0.3 µM of 50.7% and an inhibition at 1 µM of 70.1%.
The corresponding values for `Cc1ccnc(COc2noc3ccc(-c4ccc(OC(F)(F)F)cc4)cc23)n1` [Example 5, 3-((4-methylpyrimidin-2-yl)methoxy)-5-(4-(trifluoromethoxy)phenyl)benzo[d]isoxazole] are 18%, less than 5%, 38.2% and 54.5%.
Turning to `FC(F)(F)Oc1ccc(-c2ccc3onc(NCCn4cncn4)c3c2)cc1` [Example 137, N-(2-(1H-1,2,4-triazol-1-yl)ethyl)-5-(4-(trifluoromethoxy)phenyl)benzo[d]isoxazol-3-amine], the inhibition at 3 µM is 43.9% in assay [1] (setting [3]) and 17.4% in assay [1] (setting [4]). This molecule yielded an inhibition at 1 µM in assay [2] of 47.2%.
The like results for `Fc1cc(C(F)(F)F)ccc1-c1ccc2onc(OCc3ncccn3)c2c1` [Example 6, 5-(2-fluoro-4-(trifluoromethyl)phenyl)-3-(pyrimidin-2-ylmethoxy)benzo[d]isoxazole] were, in that order, 29.8%, 12.6% and 51.1%.
For the molecule `CN1CCN(c2noc3ccc(-c4ccc(OC(F)(F)F)cc4)cc23)CC1` [Example 127, 3-(4-methylpiperazin-1-yl)-5-(4-(trifluoromethoxy)phenyl)benzo[d]isoxazole], the inhibition at 3 µM amounted to 23.7% in assay [1] (setting [3]) and 25.1% in assay [1] (setting [4]). This molecule also registered an inhibition at 1 µM in assay [2] of 37.4%.
For `CCn1ccnc1COc1noc2ccc(-c3ccc(OC(F)(F)F)cc3)cc12` [Example 47, 3-((1-ethyl-1H-imidazol-2-yl)methoxy)-5-(4-(trifluoromethoxy)phenyl)benzo[d]isoxazole], the inhibition at 3 µM came out at 21.7% in assay [1] (setting [3]) and 8.5% in assay [1] (setting [4]). In assay [2], this molecule showed an inhibition at 0.3 µM of 20%. In addition, in assay [2], the inhibition at 1 µM worked out at 60.2%.
The like results for `O=C1NCC[C@H]1Oc1noc2ccc(-c3ccc(OC(F)(F)F)cc3)cc12` [Example 72, (R)-3-((5-(4-(trifluoromethoxy)phenyl)benzo[d]isoxazol-3-yl)oxy)pyrrolidin-2-one] were, in that order, 17.7%, 10.8%, 14% and 57.4%.
For the molecule `FC(F)(F)Oc1ccc(-c2ccc3onc(OCCNc4ncccn4)c3c2)cc1` [Example 123, N-(2-((5-(4-(trifluoromethoxy)phenyl)benzo[d]isoxazol-3-yl)oxy)ethyl)pyrimidin-2-amine], the inhibition at 3 µM in assay [1] (setting [3]) was 27.3%; in assay [1] (setting [4]) it was less than 5%. Further, in assay [2], the inhibition at 1 µM came to 36.3%.
For `FC(F)(F)Oc1ccc(-c2ccc3onc(OCCn4cncn4)c3c2)cc1` [Example 58, 3-(2-(1H-1,2,4-triazol-1-yl)ethoxy)-5-(4-(trifluoromethoxy)phenyl)benzo[d]isoxazole], the inhibition at 3 µM in assay [1] (setting [3]) is 22.2%; in assay [1] (setting [4]), less than 5%. For the same molecule, in assay [2], the inhibition at 0.3 µM worked out at 36.7%. For the same molecule, in assay [2], the inhibition at 1 µM amounted to 55%.
Consider `Fc1cc(-c2ccc3onc(OCc4ncccn4)c3c2)ccc1Cl` [Example 8, 5-(4-chloro-3-fluorophenyl)-3-(pyrimidin-2-ylmethoxy)benzo[d]isoxazole], for which the results for the inhibition at 3 µM in assay [1] (setting [3]) and in assay [1] (setting [4]) were 13.1% and less than 5%, respectively. The molecule further showed an inhibition at 1 µM in assay [2] of 52.6%.
With `Cc1cc(COc2noc3ccc(-c4ccc(OC(F)(F)F)cc4)cc23)on1` [Example 102, 3-((3-methylisoxazol-5-yl)methoxy)-5-(4-(trifluoromethoxy)phenyl)benzo[d]isoxazole], the results for the inhibition at 3 µM in assay [1] (setting [3]) and in assay [1] (setting [4]) were 27.8% and 7.7%, respectively. Also, the inhibition at 1 µM in assay [2] came out at 43.1%.
As for `FC(F)(F)Oc1ccc(-c2ccc3onc(NCC4CC4)c3c2)cc1` [Example 128, N-(cyclopropylmethyl)-5-(4-(trifluoromethoxy)phenyl)benzo[d]isoxazol-3-amine], the inhibition at 3 µM in assay [1] (setting [3]) was 17.3%; in assay [1] (setting [4]) it was less than 5%. The same molecule had an inhibition at 1 µM in assay [2] of 42%.
For `FC(F)(F)Oc1ccc(-c2ccc3onc(OC[C@@H]4COCCN4)c3c2)cc1` [Example 113, (S)-3-(morpholin-3-ylmethoxy)-5-(4-(trifluoromethoxy)phenyl)benzo[d]isoxazole], in assay [1] (setting [3]), the inhibition at 3 µM came to 54.3%. Moreover, the inhibition at 3 µM in assay [1] (setting [4]) is 37.3%. In assay [2], this molecule gave an inhibition at 0.3 µM of 43.9% and an inhibition at 1 µM of 79.9%.
The corresponding values for `FC(F)(F)Oc1ccc(-c2ccc3onc(OCc4ncco4)c3c2)cc1` [Example 53, 3-(oxazol-2-ylmethoxy)-5-(4-(trifluoromethoxy)phenyl)benzo[d]isoxazole] are 43.4%, less than 5%, 31.1% and 57%.
As to `FC(F)(F)Oc1ccc(-c2ccc3onc(N4CCOCC4)c3c2)cc1` [Example 130, 3-morpholino-5-(4-(trifluoromethoxy)phenyl)benzo[d]isoxazole], the inhibition at 3 µM in assay [1] (setting [3]) is 9.2%; in assay [1] (setting [4]), less than 5%. The molecule also displayed an inhibition at 1 µM in assay [2] of 38.3%.
Regarding `CC(=O)N1CCC[C@H]1COc1noc2ccc(-c3ccc(OC(F)(F)F)cc3)cc12` [Example 109, (S)-1-(2-(((5-(4-(trifluoromethoxy)phenyl)benzo[d]isoxazol-3-yl)oxy)methyl)pyrrolidin-1-yl)ethan-1-one], the inhibition at 3 µM in assay [1] (setting [3]) was 14.5%; in assay [1] (setting [4]), less than 5%. The same molecule yielded an inhibition at 0.3 µM in assay [2] of 25.3%. Moreover, in assay [2], the inhibition at 1 µM was determined as 65.7%.
Consider `OCc1cn(-c2noc3ccc(-c4ccc(OC(F)(F)F)cc4)cc23)cn1` [Example 146, (1-(5-(4-(trifluoromethoxy)phenyl)benzo[d]isoxazol-3-yl)-1H-imidazol-4-yl)methanol], for which the inhibition at 3 µM in assay [1] (setting [3]) was 28.8%; in assay [1] (setting [4]) it was 25.5%. This molecule also yielded an inhibition at 1 µM in assay [2] of 48.4%.
Regarding `Cc1nnc(COc2noc3ccc(-c4ccc(OC(F)(F)F)cc4)cc23)s1` [Example 101, 3-((5-methyl-1,3,4-thiadiazol-2-yl)methoxy)-5-(4-(trifluoromethoxy)phenyl)benzo[d]isoxazole], the inhibition at 3 µM in assay [1] (setting [3]) is 13.5%; in assay [1] (setting [4]), less than 5%. Also, in assay [2], the inhibition at 1 µM was 54.6%.
For the molecule `COCCOc1noc2ccc(-c3ccc(OC(F)(F)F)cc3)cc12` [Example 60, 3-(2-methoxyethoxy)-5-(4-(trifluoromethoxy)phenyl)benzo[d]isoxazole], in assay [1] (setting [3]), the inhibition at 3 µM was 30.6%. In assay [1] (setting [4]), the inhibition at 3 µM is less than 5%. Besides, in assay [2], the inhibition at 0.3 µM was found to be 16.8% and the inhibition at 1 µM was 57.2%.
Take `CC(C)NC(=O)COc1noc2ccc(-c3ccc(OC(F)(F)F)cc3)cc12` [Example 122, N-isopropyl-2-((5-(4-(trifluoromethoxy)phenyl)benzo[d]isoxazol-3-yl)oxy)acetamide]: the values for the inhibition at 3 µM in assay [1] (setting [3]) and in assay [1] (setting [4]) were 10.7% and less than 5%, respectively. In assay [2], this molecule gave an inhibition at 1 µM of 41.3%.
The corresponding values for `FC(F)(F)Oc1ccc(-c2ccc3onc(-n4ccnc4)c3c2)cc1` [Example 132, 3-(1H-imidazol-1-yl)-5-(4-(trifluoromethoxy)phenyl)benzo[d]isoxazole] are 20.6%, 5.1% and 40.5%.
For `Cc1ncn(-c2noc3ccc(-c4ccc(OC(F)(F)F)cc4)cc23)n1` [Example 141, 3-(3-methyl-1H-1,2,4-triazol-1-yl)-5-(4-(trifluoromethoxy)phenyl)benzo[d]isoxazole], the inhibition at 3 µM in assay [1] (setting [3]) is 17.8%; in assay [1] (setting [4]) it was less than 5%. The molecule further displayed an inhibition at 1 µM in assay [2] of 38.6%.
Regarding `CC(C)(C)OC(=O)COc1noc2ccc(-c3ccc(OC(F)(F)F)cc3)cc12` [Example 157, tert-butyl 2-((5-(4-(trifluoromethoxy)phenyl)benzo[d]isoxazol-3-yl)oxy)acetate], the inhibition at 3 µM in assay [1] (setting [3]) was 15.6%; in assay [1] (setting [4]), less than 5%. The molecule also yielded an inhibition at 1 µM in assay [2] of 36.9%.
The like results for `COc1cc2onc(OCc3ncccn3)c2cc1-c1ccc(Cl)c(F)c1` [Example 13, 5-(4-chloro-3-fluorophenyl)-6-methoxy-3-(pyrimidin-2-ylmethoxy)benzo[d]isoxazole] were, in that order, 10.7%, less than 5% and 35.1%.
On to `FC(F)(F)Oc1ccc(-c2ccc3onc(OC[C@H]4COCCN4)c3c2)cc1` [Example 114, (R)-3-(morpholin-3-ylmethoxy)-5-(4-(trifluoromethoxy)phenyl)benzo[d]isoxazole], for which the results for the inhibition at 3 µM in assay [1] (setting [3]) and in assay [1] (setting [4]) were 43.4% and 33.3%, respectively. The molecule also gave an inhibition at 0.3 µM in assay [2] of 22.5%. The molecule further registered an inhibition at 1 µM in assay [2] of 61.2%.

These data come from patent publication US9416115B2, “Fused heterocyclic compounds as ion channel modulators” (Gilead Sciences, Inc., priority 2013, dated 2016).
